# What was measured:
# V79 [1] = test: Verapamil index represents the ratio of net uptake in the presense of verapamil over control in V79 cell lines.; format: functional, cell-based; conditions: Cricetulus griseus
# [2] = Ratio of bioavailability in rat adrenal and rat blood.; format: functional, organism-based
# [3] = Ratio of bioavailability in rat blood and rat brain.; format: functional, organism-based
# V79 [4] = test: Net accumulation of the [99mTc]Isonitrile complex was measured in V79 cell lines in the presence of Verapamil.; format: functional, cell-based; conditions: Cricetulus griseus
# [5] = Ratio of bioavailability in rat heart and rat blood.; format: functional, organism-based
# V79 [6] = test: Verapamil index represents the ratio of net uptake in the presense of verapamil over control in 77A cell lines.; format: functional, cell-based
# V79 [7] = test: Net accumulation of the [99mTc]Isonitrile complex was measured in 77A cell lines in the presence of Verapamil.; format: functional, cell-based
# Rattus norvegicus [8] = test: Biodistribution values represent the mean % id/organ for paired rats 30 min post intravenous injection complex in GI; format: ADME, organism-based; conditions: in vivo, 0.5 h
# Rattus norvegicus [9] = test: Biodistribution values represent the mean % id/organ for paired rats 30 min post intravenous injection complex in Kidney; format: ADME, organism-based; conditions: in vivo, 0.5 h
# Rattus norvegicus [10] = test: Biodistribution values represent the mean % id/organ for paired rats 30 min post intravenous injection complex in Lungs; format: ADME, organism-based, Lung; conditions: in vivo, 0.5 h
# Rattus norvegicus [11] = test: Biodistribution values represent the mean % id/organ for paired rats 30 min post intravenous injection complex in Spleen; format: ADME, organism-based; conditions: in vivo, 0.5 h
# Rattus norvegicus [12] = test: Biodistribution values represent the mean % id/organ for paired rats 30 min post intravenous injection complex in Muscles; format: ADME, organism-based, Muscle tissue; conditions: in vivo, 0.5 h
# Rattus norvegicus [13] = test: Biodistribution values represent the mean % id/organ for paired rats 30 min post intravenous injection complex in Adrenal; format: ADME, organism-based; conditions: in vivo, 0.5 h
# Rattus norvegicus [14] = test: Biodistribution values represent the mean % id/organ for paired rats 30 min post intravenous injection complex in Bone; format: ADME, organism-based, Bone element; conditions: in vivo, 0.5 h
# Rattus norvegicus [15] = test: Biodistribution values represent the mean % id/organ for paired rats 30 min post intravenous injection complex in Blood; format: ADME, organism-based; conditions: in vivo, 0.5 h
# Rattus norvegicus [16] = test: Biodistribution values represent the mean % id/organ for paired rats 30 min post intravenous injection complex in Skin; format: ADME, organism-based; conditions: in vivo, 0.5 h
# Rattus norvegicus [17] = test: Biodistribution values represent the mean % id/organ for paired rats 30 min post intravenous injection complex in Liver; format: ADME, organism-based; conditions: in vivo, 0.5 h
# Rattus norvegicus [18] = test: Biodistribution values represent the mean % id/organ for paired rats 30 min post intravenous injection complex in Heart; format: ADME, organism-based; conditions: in vivo, 0.5 h
# Rattus norvegicus [19] = test: Biodistribution values represent the mean % id/organ for paired rats 30 min post intravenous injection complex in Brain; format: ADME, organism-based; conditions: in vivo, 0.5 h
# Rattus norvegicus [20] = test: Biodistribution values represent the mean % id/organ for paired rats 30 min post intravenous injection complex in Fat; format: ADME, organism-based; conditions: in vivo, 0.5 h
Substance,Ratio [2],Ratio [3],Ratio [5],Verapamil index (V79 [6]; Cricetulus griseus),Net accumulation (V79 [7]; Cricetulus griseus),further results
Hexakis-(2-methoxyisobutylisonitrile)Technetium (99mTc-MIBI),158,0.7,120,32.9,102,Verapamil index (V79 [1]): 3.91; Net accumulation (V79 [4]): 70.4
Hexakis[4-Nitrobenzeneisonitrile]technetium Complex,0.6,39,0.3,1.15,29.1,–
Hexakis[5-Methoxy-2-methyl-4-nitrobenzeneisonitrile]technetium Complex,1.8,28,0.4,–,–,Verapamil index (V79 [1]): 0.87; Net accumulation (V79 [4]): 31.7
Hexakis[3-(hydroxymethyl)benzeneisonitrile]technetium Complex,6.2,27,0.7,–,–,Verapamil index (V79 [1]): 2.38; Net accumulation (V79 [4]): 257
"Hexakis[2-(3,4,5-Trimethoxyphenyl)ethaneisonitrile]technetium Complex",54,5,9,1.07,101,–
"Hexakis[3,4-Dimethoxy-alpha-tolueneisonitrile]technetium Complex",7.9,19,0.6,1.53,362,–
"Hexakis[3,4-(Methylenedioxy)-alpha-tolueneisonitrile]technetium Complex",6.9,36,0.6,–,–,Verapamil index (V79 [1]): 1.11; Net accumulation (V79 [4]): 287
"Hexakis[3,5-Dimethoxy-alpha-tolueneisonitrile]technetium Complex [listing 1 of 2 here]",3.1,28,0.4,2.19,315,–
Hexakis[2-Methoxy-5-nitrobenzeneisonitrile]technetium Complex,0.9,38,0.5,–,–,Verapamil index (V79 [1]): 0.96; Net accumulation (V79 [4]): 58.3
"Hexakis[3,5-Dimethoxybenzeneisonitrile]technetium Complex",1.7,7.5,1,1.84,15.3,–
"Hexakis[3,4-(Methylenedioxy)benzeneisonitrile]technetium Complex",14,9.3,0.4,1.87,93.9,–
Hexakis[4-Cyanobenzeneisonitrile]technetium Complex,1.2,31,0.3,1.61,161,–
"Hexakis[2-(3,4-Dimethoxyphenyl)ethaneisonitrile]technetium Complex",4.1,23,0.4,–,–,Verapamil index (V79 [6]): 3.3; Net accumulation (V79 [7]): 146
Hexakis[4-Acetylbenzeneisonitrile]technetium Complex,22,17,0.6,1.73,826,–
Hexakis[4-Methoxy-alpha-tolueneisonitrile]technetium Complex,2.5,30,0.3,2.6,359,–
"Hexakis[3,4,5-Trimethoxy-alpha-tolueneisonitrile]technetium Complex",24,6.7,5.5,0.81,57,–
Hexakis[2-(4-Methoxyphenyl)ethaneisonitrile]technetium Complex,13,26,3.5,3.09,494,–
Hexakis[3-Acetamidobenzeneisonitrile]technetium Complex,8.8,15,0.7,0.77,147,–
Hexakis[3-Nitrobenzeneisonitrile]technetium Complex,0.6,31,0.4,–,–,Verapamil index (V79 [1]): 0.99; Net accumulation (V79 [4]): 14
"Hexakis[3,4-Dimethoxybenzeneisonitrile]technetium Complex",7.3,26,0.7,3.52,397,–
"Hexakis[3,5-Dimethoxy-alpha-tolueneisonitrile]technetium Complex [listing 2 of 2 here]",–,–,–,–,–,ID/organ (Rattus norvegicus [8]): 2.22%; ID/organ (Rattus norvegicus [9]): 0.3%; ID/organ (Rattus norvegicus [10]): 0.87%; ID/organ (Rattus norvegicus [11]): 3.35%; ID/organ (Rattus norvegicus [12]): 1.82%; ID/organ (Rattus norvegicus [13]): 0.04%; ID/organ (Rattus norvegicus [14]): 3.63%; ID/organ (Rattus norvegicus [15]): 5.06%; ID/organ (Rattus norvegicus [16]): 0.43%; ID/organ (Rattus norvegicus [17]): 75.9%; ID/organ (Rattus norvegicus [18]): 0.12%; ID/organ (Rattus norvegicus [19]): 0.02%; ID/organ (Rattus norvegicus [20]): 0.2%
